Test results taken from patent US20220002268A1, “NOVEL HETEROARYL-TRIAZOLE AND HETEROARYL-TETRAZOLE COMPOUNDS AS PESTICIDES” (Bayer Aktiengesellschaft, priority 2019, published 2022).

Tests used:
Assay type in all cases: in vivo
Myzus persicae = Myzus persicae oral test; conditions: 120 h, after 5 days
Experimental: Myzus persicae—Oral Test Solvent: 100 parts by weight acetone
(§1) To produce a suitable preparation of active compound, 1 part by weight of active compound is mixed with the stated amount of solvent, and the concentrate is diluted with water to the desired concentration.
50 μl compound solution is filled in microtiter plates and 150 μl IPL41 insect medium (33%+15% sugar) is added to obtain a total volume of 200 μl per well. Afterwards the plates are sealed with parafilm through which a mixed population of the green peach aphid (Myzus persicae) can suck on the compound preparation.
After 5 days mortality in % is determined. 100% means all aphids have been killed and 0% means none of the aphids have been killed.

Ctenocephalides felis = Ctenocephalides felis oral test; conditions: 48 h, 100 ppm in cattle blood, after 2 days
Experimental: Ctenocephalides felis—Oral Test Solvent: dimethyl sulfoxide
To produce a suitable preparation of active compound, 10 mg of active compound are dissolved in 0.5 ml solvent, and the concentrate is diluted with cattle blood to the desired concentration.
Approximately 20 adult unfed cat fleas (Ctenocephalides felis) are placed in flea chambers. The blood chamber, sealed with parafilm on the bottom, are filled with cattle blood supplied with compound solution and placed on the gauze covered top of the flea chamber, so that the fleas are able to suck the blood. The blood chamber is heated to 37° C. whereas the flea chamber is kept at room temperature.
After 2 days mortality in % is determined. 100% means all the fleas have been killed; 0% means none of the fleas have been killed.

Phaedon cochleariae = Phaedon cochleariae spray test; conditions: 168 h, after 7 days
Experimental: Phaedon cochleariae—Spray Test Solvent: 78.0 parts by weight of acetone • • 1.5 parts by weight of dimethylformamide Emulsifier: alkylarylpolyglycol ether
(§2) To produce a suitable preparation of active compound, 1 part by weight of active compound is mixed with the stated amount of solvents and is diluted with water, containing an emulsifier concentration of 1000 ppm, to the desired concentration. Further test concentrations are prepared by dilution with emulsifier containing water.
Chinese cabbage (Brassica pekinensis) leaf disks are sprayed with a preparation of the active ingredient of the desired concentration. Once dry, the leaf disks are infested with mustard beetle larvae (Phaedon cochleariae).
After 7 days mortality in % is determined. 100% means all beetle larvae have been killed and 0% means none of the beetle larvae have been killed.

Nilaparvata lugens = Nilaparvata lugens spray test; conditions: 96 h, after 4 days
Experimental: Nilaparvata lugens—Spray Test Solvent: 78.0 parts by weight of acetone • • 1.5 parts by weight of dimethylformamide Emulsifier: alkylarylpolyglycol ether
as §2
Rice plants (Oryza sativa) are sprayed with a preparation of the active ingredient of the desired concentration and the plants are infested with the brown planthopper (Nilaparvata lugens).
After 4 days mortality in % is determined. 100% means all planthoppers have been killed and 0% means none of the planthoppers have been killed.

[1] = test system: Aedes aegypti strain MONHEIM; assay: Aedes aegypti test (AEDSAE surface treatment & contact assay); conditions: surface concentration 20 mg/m^2, 30 minutes exposure, 24 hours after contact, read-out: efficacy (mortality)
Experimental: Aedes aegyti Test (AEDSAE Surface Treatment & Contact Assay) Solvent: Aceton+2000 ppm rapeseed oil methyl ester (RME)
In order to produce a sufficient, active ingredient containing solution it is necessary to solve the test compound in the solvent-mix (acetone at 2 mg/ml/RME 2000 ppm). This solution is pipetted onto a glazed tile and after evaporation of the acetone, adult mosquitoes of the species Aedes aegypti strain MONHEIM are placed onto the dried surface. The exposure time is 30 minutes.
Mortality in percent (%) is determined 24 hours after contact to the treated surface. 100% mortality means that all tested insects are dead, whereas 0% means that no insect died.

Diabrotica balteata = Diabrotica balteata spray test; conditions: 168 h, 160 gg/well, after 7 days, read-out: efficacy (seedlings grown)
Experimental: Diabrotica balteata—Spray Test Solvent: 78.0 parts by weight of acetone • • 1.5 parts by weight of dimethylformamide Emulsifier: alkylarylpolyglycol ether
as §2, with “solvent,” for “solvents”, “and the concentrate” for “and”
Soaked wheat seeds (Triticum aestivum) are placed in a multiple well plate filled with agar and some water and are incubated for 1 day to germinate (5 seeds per well). The germinated wheat seeds are sprayed with a test solution containing the desired concentration of the active ingredient. Afterwards each unit is infected with 10-20 larvae of the banded cucumber beetle (Diabrotica balteata).
After 7 days efficacy in % is determined. 100% means all the seedlings have grown up like in the untreated, uninfected control; 0% means none of the seedlings have grown.

Spodoptera frugiperda = Spodoptera frugiperda spray test; conditions: 168 h, after 7 days
Experimental: Suodontera frugiuerda—Spray Test Solvent: 78.0 parts by weight acetone • 1.5 parts by weight dimethylformamide Emulsifier: alkylarylpolyglycol ether
as §2
Maize (Zea mays) leaf sections are sprayed with a preparation of the active ingredient of the desired concentration. Once dry, the leaf sections are infested with fall armyworm larvae (Spodoptera frugiperda).
After 7 days mortality in % is determined. 100% means all caterpillars have been killed and 0% means none of the caterpillars have been killed.

Boophilus microplus = Boophilus microplus injection test; conditions: Rhipicephalus microplus, 168 h; 20 gg/animal, injection into abdomen, after 7 days; read-out: efficacy (infertile eggs)
Experimental: Boophilus microplus—Injection Test Solvent: dimethyl sulfoxide To produce a suitable preparation of active compound, 10 mg of active compound are dissolved in 0.5 ml solvent, and the concentrate is diluted with solvent to the desired concentration. Five adult engorged female ticks (Boophilus microplus) are injected with 1 μl compound solution into the abdomen. The ticks are transferred into replica plates and incubated in a climate chamber. After 7 days egg deposition of fertile eggs is monitored. Eggs where fertility is not visible are stored in a climate chamber till hatching after about 42 days. An efficacy of 100% means all eggs are infertile; 0% means all eggs are fertile.

Nezara viridula = Nezara viridula spray test; conditions: 96 h, after 4 days
Experimental: Nezara viridula—Spray Test Solvent: 78.0 parts by weight of acetone • • 1.5 parts by weight of dimethylformamide Emulsifier: alkylarylpolyglycol ether
as §2, with “solvent,” for “solvents”, “and the concentrate” for “and”
Barley plants (Hordeum vulgare) infested with larvae of the southern green stink bug (Nezara viridula) are sprayed with a test solution containing the desired concentration of the active ingredient.
After 4 days mortality in % is determined. 100% means all the stink bugs have been killed; 0% means none of the stink bugs have been killed.

Tetranychus urticae = Tetranychus urticae spray test OP-resistant; conditions: 144 h, after 6 days
Experimental: Tetranychus urticae—Spray Test OP-Resistant Solvent: 78.0 parts by weight acetone • 1.5 parts by weight dimethylformamide Emulsifier: alkylarylpolyglycol ether
as §2
French bean (Phaseolus vulgaris) leaf disks infected with all instars of the two spotted spidermite (Tetranychus urticae), are sprayed with a preparation of the active ingredient of the desired concentration.
After 6 days mortality in % is determined. 100% means all spider mites have been killed and 0% means none of the spider mites have been killed.

Meloidogyne incognita = Meloidogyne incognita test; conditions: 20 ppm, after 14 days
Experimental: Meloidogyne incognita—Test Solvent: 125.0 parts by weight of acetone
as §1
Vessels are filled with sand, a solution of the active ingredient, a suspension containing eggs and larvae of the southern root-knot nematode (Meloidogyne incognita) and salad seeds. The salad seeds germinate and the seedlings grow. Galls develop in the roots.
After 14 days the nematicidal activity is determined on the basis of the percentage of gall formation. 100% means no galls were found and 0% means the number of galls found on the roots of the treated plants was equal to that in untreated control plants.

| Structure (SMILES) | mortality at 20 ppm (Myzus persicae) | mortality at 100 ppm (Ctenocephalides felis) | mortality at 500 g/ha (Phaedon cochleariae) | mortality at 500 g/ha (Nilaparvata lugens) | mortality at 20 mg/m2 [1] | pest or weed control at 160 µg/well (Diabrotica balteata) | mortality at 500 g/ha (Spodoptera frugiperda) | pest or weed control at 0.02 mg (Boophilus microplus) | mortality at 500 g/ha (Nezara viridula) | mortality at 500 g/ha (Tetranychus urticae) | nematicidal activity (gall formation) (Meloidogyne incognita) |
| --- | --- | --- | --- | --- | --- | --- | --- | --- | --- | --- | --- |
| O=C(c1cc(C(F)(F)F)cc(C(F)(F)F)c1)N(Cc1ncnn1-c1ncccn1)CC1CC1 [Example I-004] | 100% | 100% | 100% | 100% | 85 to 100% | 100% | 100% | 100% | 100% |  |  |
| O=C(NC1(c2ncnn2-c2ncccn2)CC1)c1cc(Cl)cc(OC(F)(F)F)c1 [Example I-016] |  |  |  |  |  |  |  |  |  | 90% |  |
| O=C(c1cc(Cl)cc(C(F)(F)F)c1)N(Cc1ncnn1-c1ncccn1)CC1CC1 [Example I-001, 3-Chloro-N-(cyclopropylmethyl)-N-{[1-(pyrimidin-2-yl)-1H-1,2,4-triazol-5-yl]methyl}-5-(trifluoromethyl)benzamide] | 100% | 95% | 100% |  |  | 100% | 100% | 100% |  |  | 90% |
